Test results as given in US8623924B2, “Compositions and methods for modulating metabolic pathways” (Nusirt Sciences, Inc., priority 2011, dated 2014).
Entries after “also recorded” stand apart in the source; their conditions may differ. Marks after values point to notes of the source that are not given here.

Legend:
[1] = MicroPET/CT glucose and palmitate uptake in diet-induced obese mice; type: in vivo; details: 6 weeks on diet, low resveratrol 12.5 mg/kg diet, low HMB 2 g CaHMB/kg diet, high HMB 10 g CaHMB/kg diet, leucine 2.42% of diet
Excerpt: (§1) Six week old male c57/BL6 mice were fed a high-fat diet with fat increased to 45% of energy (Research Diets D12451) for 6 weeks to induce obesity.
MicroPET/CT (Glucose and Palmitate Uptake): At the end of the treatment period (6 weeks of treatment) subgroups of each treatment diet group (5 animals/group, 35 animals total) were used to measure whole body glucose and palmitate uptake via PET/CT Imaging. To visualize these compounds using microPET imaging, the glucose or palmitate was labeled with fluorine-18 (108 mins half life) or carbon-11 (20 mins half life), respectively. Each mouse was fasted for 4 hours, then anesthetized using 1-3% isoflurane delivered by nose cone or in a mouse-sized induction chamber purpose-built for small animal imaging protocols. While under anesthesia the mice were injected iv with <2 mCi of each tracer, then be left for a period of time (minutes to up ˜1 hour) to allow the uptake of the tracer. During the scan, mice were kept warm using a thermostatically controlled heated bed and were treated with ophthalmic ointment prior to scanning. Following the live scan the mice were returned to their cage and revived. Mice were monitored constantly during this time. Following live data acquisition the mice were sacrificed by isoflurane overdose and organs harvested for further experiments.

[2] = Body weight, weight gain and visceral adiposity in diet-induced obese mice; type: in vivo; details: 6 weeks on diet, low resveratrol 12.5 mg/kg diet, low HMB 2 g CaHMB/kg diet, high HMB 10 g CaHMB/kg diet, leucine 2.42% of diet
Excerpt: as §1
At the of the treatment period (6 weeks) all animals were humanely euthanized, and blood and tissues collected for further experiments.

C-reactive protein = test: Inflammatory biomarker C-reactive protein in diet-induced obese mice; type: in vivo; details: 6 weeks on diet, low resveratrol 12.5 mg/kg diet, low HMB 2 g CaHMB/kg diet, high HMB 10 g CaHMB/kg diet, leucine 2.42% of diet
MCP-1 = test: Inflammatory biomarker MCP-1 in diet-induced obese mice; type: in vivo; details: 6 weeks on diet, low resveratrol 12.5 mg/kg diet, low HMB 2 g CaHMB/kg diet, high HMB 10 g CaHMB/kg diet, leucine 2.42% of diet
IL-6 = test: Inflammatory biomarker IL-6 in diet-induced obese mice; type: in vivo; details: 6 weeks on diet, low resveratrol 12.5 mg/kg diet, low HMB 2 g CaHMB/kg diet, high HMB 10 g CaHMB/kg diet, leucine 2.42% of diet
SIRT1 = target: T1, SIRT1 (Homo sapiens, UniProt Q96EB6); test: SIRT1 activity, cell-free fluorimetric deacetylation assay; type: biochemical; details: cell-free system
T1 construct: purchased ENZO Life Sciences International, Inc. BML-AK555
T1 sequence (Q96EB6 1-747): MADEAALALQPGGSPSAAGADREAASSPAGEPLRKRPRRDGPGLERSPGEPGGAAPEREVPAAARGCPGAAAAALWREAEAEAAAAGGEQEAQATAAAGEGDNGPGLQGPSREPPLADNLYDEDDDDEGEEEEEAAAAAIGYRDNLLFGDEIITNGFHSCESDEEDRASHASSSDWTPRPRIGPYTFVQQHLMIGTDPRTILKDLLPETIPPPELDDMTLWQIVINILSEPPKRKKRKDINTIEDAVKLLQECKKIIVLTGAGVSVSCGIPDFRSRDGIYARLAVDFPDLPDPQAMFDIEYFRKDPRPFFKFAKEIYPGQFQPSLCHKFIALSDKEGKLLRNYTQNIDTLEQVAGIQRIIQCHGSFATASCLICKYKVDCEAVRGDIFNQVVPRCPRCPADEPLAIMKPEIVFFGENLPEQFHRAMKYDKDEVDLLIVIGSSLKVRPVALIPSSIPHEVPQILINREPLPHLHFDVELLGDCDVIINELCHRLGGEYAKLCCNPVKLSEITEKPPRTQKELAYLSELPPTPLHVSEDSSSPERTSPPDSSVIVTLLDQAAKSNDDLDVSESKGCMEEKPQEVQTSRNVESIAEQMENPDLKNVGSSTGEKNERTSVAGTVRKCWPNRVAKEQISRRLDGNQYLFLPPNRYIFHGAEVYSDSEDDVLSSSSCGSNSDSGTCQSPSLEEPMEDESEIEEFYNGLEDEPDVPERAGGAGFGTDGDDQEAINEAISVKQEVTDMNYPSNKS
Method: SIRT1 activity was measured by using the SIRT1 Fluorimetric Drug Discovery Kit (BML-AK555, ENZO Life Sciences International, Inc. PA, USA). In this assay, SIRT1 activity is assessed by the degree of deacetylation of a standardized substrate containing an acetylated lysine side chain. The substrate utilized is a peptide containing amino acids 379-382 of human p53 (Arg-His-Lys-Lys[Ac]), an established target of SIRT1 activity; SIRT1 activity is directly proportional to the degree of deacetylation of Lys-382. Samples were incubated with peptide substrate (25 μM), and NAD^+ (500 μM) in a phosphate-buffered saline solution at 37° C. on a horizontal shaker for 45 minutes. The reaction was stopped with the addition of 2 mM nicotinamide and a developing solution that binds to the deacetylated lysine to form a fluorophore. Following 10 minutes incubation at 37° C., fluorescence was read in a plate-reading fluorometer at an excitation wavelength of 360 nm and an emission wavelength of 450 nm. […] A standard curve was constructed using deacetylated substrate (0-10 μM).

Sirt3 = target: T2, Sirt3 (Mus musculus, UniProt Q8R104); test: Sirt3 activity in mitochondrial protein of treated 3T3-L1 adipocytes; type: cell-based; details: 4 hours, leucine 0.5 mM, HMB 5 uM, resveratrol 200 nM
T2 construct: endogenous in cells; host or cells: 3T3-L1 adipocytes (mitochondrial protein)
T2 sequence (Q8R104 1-334): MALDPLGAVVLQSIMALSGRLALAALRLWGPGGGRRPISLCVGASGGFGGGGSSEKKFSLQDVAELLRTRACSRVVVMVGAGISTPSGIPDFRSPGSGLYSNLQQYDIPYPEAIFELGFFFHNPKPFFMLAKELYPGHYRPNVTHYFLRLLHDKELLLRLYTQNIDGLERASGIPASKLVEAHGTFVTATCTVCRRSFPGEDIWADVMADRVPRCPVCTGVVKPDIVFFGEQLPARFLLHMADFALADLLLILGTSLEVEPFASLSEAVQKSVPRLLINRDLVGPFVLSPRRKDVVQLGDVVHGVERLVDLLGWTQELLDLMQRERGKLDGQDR

[3] = tested on: PGC-1α, NRF-1 and UCP3 genes; test: Expression of mitochondrial regulatory and component genes; type: cell-based

SMILES: CC(C)(O)CC(=O)O [HMB]
- Fat oxidation (PET palmitate uptake; Muscle SUV) [1]: 1.90 ± 0.29^a SUV
- Muscle Glucose Uptake (18F-deoxyglucose SUV) [1]: 2.99 ± 0.42^a SUV
- Visceral Adipose Volume (mm^3) [2]: 6184 ± 460^a mm^3
- Weight (g) [2]: 40.3 ± 2.1^a g
- Weight gain [2]: 22.5 ± 1.2 g
- C-reactive protein (C-reactive protein): 98.6 ± 5.1 ng/mL
- MCP-1 (pg/mL) (MCP-1): 116.8 ± 9.3^a pg/mL
- IL-6 (pg/mL) (IL-6): 19.9 ± 3.1^a pg/mL
- SIRT1 activity (SIRT1): significantly increased SIRT1 activity
- increase in Sirt3 activity (Sirt3): no significant independent effect; also recorded: no independent effects
- expression of mitochondrial regulatory (PGC-1α and NRF-1) and component (UCP3) genes [3]: stimulated expression
